In article PMC8457666 (Science Advances, 2021):
Substitutions are numbered along the chain they refer to.

Columns and labels:
WzcCDΔC [1] = target: T1, WzcCDΔC (Escherichia coli, UniProt P76387); experiment: isothermal titration calorimetry, one-site model; type: binding
T1 sequence (P76387 447-704 limits assumed): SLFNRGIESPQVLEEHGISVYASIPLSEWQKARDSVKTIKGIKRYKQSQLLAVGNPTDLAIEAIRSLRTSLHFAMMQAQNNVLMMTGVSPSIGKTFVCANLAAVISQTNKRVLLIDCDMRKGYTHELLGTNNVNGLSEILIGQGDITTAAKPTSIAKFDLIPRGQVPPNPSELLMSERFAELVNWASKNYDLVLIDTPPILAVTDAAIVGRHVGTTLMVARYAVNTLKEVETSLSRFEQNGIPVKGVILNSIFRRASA

WzcCDΔC [2] = target: T2, WzcCDΔC (Escherichia coli, UniProt P76387, K540M); experiment: isothermal titration calorimetry, one-site model; type: binding
T2 sequence (P76387 447-704 K540M limits assumed): T1 sequence (P76387 447-704 limits assumed) with K94M

Nc1ncnc2c1ncn2[C@@H]1O[C@H](COP(=O)(O)OP(=O)(O)O)[C@@H](O)[C@H]1O [ADP]
Kd (WzcCDΔC [1]): 2600 ± 1100 nM | Kd (WzcCDΔC [2]): 500 ± 200 nM
